Measurements from article PMC4163382, “Symbiotic Plant Peptides Eliminate Candida albicans Both In Vitro and in an Epithelial Infection Model and Inhibit the Proliferation of Immortalized Human Cells” (BioMed Research International, 2014).
Peptide text beside a SMILES is read from it.

What was measured:
[1] = test system: C. albicans WO-1 cells; assay: Cell permeability assay (calcein release); format: cell-based, Candida albicans; conditions: calcein-loaded C. albicans WO-1, 10 mM potassium phosphate buffer pH 7.0, peptide 50 μg/mL, fluorescence 485/530 nm
Experimental: Cell permeability was monitored by the release of the intracellularly accumulated dye calcein. Overnight C. albicans WO-1 cells were washed twice with and resuspended in 10 mM potassium phosphate buffer (pH = 7.0) at a concentration of 10^7 cells mL^−1. Cells were loaded with acetomethoxy-calcein at a final concentration of 5 μM for 2 hours at room temperature. Cells were washed three times to remove the extracellular dye and then 100 μL of the suspension was transferred to FIA black 96-well plates. NCR peptides were then added at a concentration of 50 mg/L, and the release of calcein (formed by the cells' esterases) was measured by its fluorescence in a microtiter plate reader (FLUOstar OPTIMA) at excitation and emission wavelengths of 485 nm and 530 nm, respectively. Calcein efflux was calculated as previously reported.

[2] = test system: C. albicans strains WO-1 and Sc 5314; assay: Microdilution antifungal assay, summary for C. albicans; format: cell-based, Candida albicans; conditions: strains WO-1 and Sc 5314, LSM medium, microdilution plate assay
Experimental: (§1) The antifungal activity of the NCR peptides against C. albicans strains and other Candida species was determined in vitro using 96-well flat bottom microtiter plates (Sarstedt). Fifty microliters of dilutions from each peptide (final concentrations in the assays ranged from 2.5 to 100 μg/mL) was added to 50 μL of 10^4 cells mL^−1 and 10^5 cells mL^−1 in LSM. The plates were incubated at 30°C and the peptide concentrations that prevented the germination of yeast cells were determined by microscopic analysis and measurement of absorbance at 600 nm with a microtiter plate reader (FLUOstar OPTIMA; BMG Labtech) after 24 and 48 hours. Minimal inhibitory concentration (MIC) was determined as the lowest concentration of the peptide at which there was no visible and measurable growth after 24 hours of incubation. To determine whether the antifungal effect was fungistatic or fungicidal, 10 μL from each treatment was dropped onto solid YPD plate after 3 and 24 hours. Plates were incubated at 30°C for 48 hours and developing colonies were observed. Minimal fungicidal concentration (MFC) was defined where no fungal growth could be observed.

[3] = test system: PK E6/E7 vaginal epithelial cells; assay: MTT assay, cytotoxicity on human epithelial cells; format: cell-based; conditions: peptide in PBgluc 3 hours at 37°C, 24 hours regeneration in CKM, MTT 4 hours, 560 nm
Experimental: The immortalized human vaginal epithelial cell line PK E6/E7 [15] was cultured in serum-free CKM supplemented with 0.005 μg/mL recombinant epidermal growth factor, 50 μg/mL bovine pituitary extract, L-glutamine, and antibiotic/antimycotic solution (Life Technologies) in a CO2 thermostat at 37°C [16]. Cells at 60–70% confluence were used in subsequent experiments.
MTT Assay. PK E6/E7 vaginal epithelial cells were seeded in the wells of a 96-well plate at a density of 1 × 10^4 cells per well in a final volume of 100 μL. CKM was then aspirated and 100 μL of the appropriate peptide diluted in PBgluc was added. After 3 hours of incubation at 37°C, the peptide solution was removed, and the cells were let to regenerate in CKM for 24 hours. Then 5 mg/mL 3-[4,5-dimethylthiazol-2-yl]-2,5-diphenyltetrazolium bromide (MTT) was added to each well and the plate was placed to 37°C for 4 hours. The amount of formazan formed by the activity of the mitochondrial succinate dehydrogenase of living cells was measured by using a microtiter plate reader (FLUOstar OPTIMA) at the wavelength of 560 nm.
10 μg/mL of primycin, a macrolide lactone antibiotic complex that rapidly kills PK cells, was used as a control for cytotoxicity in both assays.
(§2) MTT assays and impedance measurements were performed in at least four technical parallels and two biological replicates; all the data are presented as mean ± standard deviation. Significance was calculated with Newman-Keuls post hoc test using the GraphPad Prism version 5 for Windows and a probability (P) value of less than 0.05 was considered significant.

[4] = test system: PK E6/E7 vaginal epithelial cells infected with C. albicans WO-1; assay: Vaginal epithelial cell - C. albicans coculture (RTCA); format: cell-based, human; conditions: PK E6/E7 + C. albicans WO-1, MOI of 5, 3 hours coculture then peptide 3 hours in PBgluc at both 25 and 50 μg/mL, RTCA at 40 hours
Experimental: PK E6/E7 cells were seeded in 96-well E-plates as described above for RTCA. On the next day, an overnight culture of C. albicans WO-1 was diluted to OD = 1 and let to grow until OD = 1.5–2. The fungal cell suspension was diluted in antibiotic/antimycotic-free CKM and was added to the human cells with a multiplicity of infection (MOI) of 5. After 3 hours of coculture at 37°C, CKM medium was replaced with NCR peptides in PBgluc. After 3 hours of incubation, peptides were removed and 200 μL of fresh antibiotic/antimycotic-free CKM was added. Subsequent measurements were performed as described above.
as §2

[5] = test system: C. albicans strain Sc5314; format: cell-based, Candida albicans; conditions: C. albicans Sc5314, LSM medium, 30°C, 24 hours of treatment, peptide 2.5 to 100 μg/mL, microscopy and absorbance at 600 nm; mean (±spread)
Experimental: (§3) The C. albicans strains WO-1 and Sc5314 were maintained on YPD medium (1% (w/v) yeast extract, 2% (w/v) peptone, 2% (w/v) dextrose, 2% (w/v) agar; Beckton, Dickinson and Company). Hyphal growth was induced in complete keratinocyte medium (CKM; Life Technologies) without serum. The effect of the NCR peptides on free-living fungi was investigated either in PBgluc buffer (1 mM KH2PO4, 3 mM Na2HPO4 × 7H2O, 5% glucose, pH = 7.0) or in low-salt fungal medium (LSM) composed of 5 mM K2HPO4, 100 μM MgSO4, 10 μM FeCl, 0.2 μM CoCl2, 0.2 μM CuSO4, 4 μM Na2MoO4, 1 μM H3BO3, 0.2 μM KI, 1 μM ZnSO4, 0.2 μM MnSO4, 2% glucose, 0.2% asparagine, 40 μg/mL methionine, 4 μg/mL myo-inositol, 0.4 μg/mL biotin, 2 μg/mL thiamine-HCl, and 0.4 μg/mL pyridoxine-HCl.
as §1

[6] = test system: C. albicans strain WO-1; format: cell-based, Candida albicans; conditions: C. albicans WO-1, LSM medium, 30°C, 24 hours of treatment, peptide 2.5 to 100 μg/mL, microscopy and absorbance at 600 nm; mean (±spread)
Experimental: as §3, §1

[7] = test system: C. albicans WO-1; format: cell-based, Candida albicans; conditions: 10 μL dropped onto solid YPD, 30°C for 48 hours, mean (±spread); for Minimal fungicidal concentration, 3 h: C. albicans WO-1, 3 hours of treatment; for Minimal fungicidal concentration, 24 h: C. albicans WO-1, 24 hours of treatment
Experimental: as §1

[8] = test system: C. albicans WO-1 cells; assay: Localization of FITC-labeled peptides (confocal microscopy); format: cell-based, Candida albicans; conditions: 5 μg/mL (sublethal), 3 hours at 30°C in LSM
Experimental: C. albicans WO-1 cells were labeled with 5 μg/mL of the FM4-64 membrane stain (Life Technologies) and 0.5 μg/mL of the DNA stain 4′,6-diamidino-2-phenylindole (DAPI, Sigma) for 15 minutes after 2 hours of peptide treatment. Images were captured with an Axio Observer Z.1 (Zeiss) fluorescent microscope. For studying the interaction of peptides with the fungus, an overnight C. albicans WO-1 culture was diluted in LSM and treated with FITC-conjugated peptides (at the sublethal concentration of 5 μg/mL) for 3 hours at 30°C. Cells were then centrifuged for 4 minutes at 600 rpm and the unbound peptides were removed by gentle pipetting of the supernatant and cells were resuspended in LSM. The cell suspension was dropped onto a coverslip and images were taken with an Olympus FluoView FV1000 confocal laser-scanning microscope.

Row | Compound | Calcein (dye) efflux [1] | Anticandidal activity against the yeast form of growing C. albicans [2] | Concentration that provoked cell death / toxicity [3] [µg/mL] | Prevention of C. albicans induced epithelial cell death [4] | Minimal inhibitory concentration, Sc5314 [5] | Minimal inhibitory concentration, WO-1 [6] | Minimal fungicidal concentration, 3 h [7] | Minimal fungicidal concentration, 24 h [7] | Localization of FITC-labeled peptide in C. albicans cells [8]
1 | CSCC[C@H](NC(=O)[C@H](CCCCN)NC(=O)[C@H](CCCNC(=N)N)NC(=O)[C@@H]1CCCN1C(=O)[C@H](CS)NC(=O)[C@H](Cc1c[nH]cn1)NC(=O)CNC(=O)[C@@H](NC(=O)[C@H](Cc1c[nH]cn1)NC(=O)[C@H](CCCCN)NC(=O)[C@H](CS)NC(=O)CNC(=O)[C@H](CC(N)=O)NC(=O)[C@H](CCCCN)NC(=O)[C@@H](N)CCSC)[C@@H](C)O)C(=O)N[C@@H](CS)C(=O)NCC(=O)N[C@@H](C)C(=O)N[C@@H](CCCCN)C(=O)N[C@H](C(=O)N[C@H](C(=O)N[C@@H](CCCCN)C(=O)N[C@@H](CS)C(=O)N[C@@H](CCCNC(=N)N)C(=O)N[C@@H](CC(N)=O)C(=O)N[C@@H](CC(N)=O)C(=O)N[C@@H](CCCCN)C(=O)N[C@@H](CS)C(=O)N[C@@H](CCC(N)=O)C(=O)N[C@@H](CS)C(=O)N[C@H](C(=O)N[C@@H](CCC(N)=O)C(=O)N[C@@H](CC(C)C)C(=O)O)C(C)C)[C@@H](C)O)[C@@H](C)O [NCR192] (H-MKNGCKHTGHCPRKMCGAKTTKCRNNKCQCVQL-OH; N-terminus and C-terminus assumed) | 22.82 ± 11.16% | exhibited anticandidal activity | 100 | could be prevented |  |  |  |  | 
2 | CC[C@H](C)[C@H](NC(=O)[C@H](CS)NC(=O)CNC(=O)[C@H](CC(N)=O)NC(=O)[C@@H](N)CCCNC(=N)N)C(=O)N[C@H](C(=O)N[C@@H](CC(=O)O)C(=O)N1CCC[C@H]1C(=O)N[C@@H](CCCNC(=N)N)C(=O)N[C@@H](CS)C(=O)N1CCC[C@H]1C(=O)N[C@@H](Cc1ccc(O)cc1)C(=O)N[C@@H](CCC(N)=O)C(=O)N[C@@H](CCC(N)=O)C(=O)N[C@@H](CS)C(=O)N[C@@H](CCCNC(=N)N)C(=O)N[C@@H](CCCNC(=N)N)C(=O)N1CCC[C@H]1C(=O)N[C@@H](CC(C)C)C(=O)N[C@@H](Cc1ccc(O)cc1)C(=O)N[C@@H](CS)C(=O)N[C@@H](CCCNC(=N)N)C(=O)N[C@@H](CCCNC(=N)N)C(=O)N[C@@H](CCCNC(=N)N)C(=O)O)C(C)C [NCR247] (H-RNGCIVDPRCPYQQCRRPLYCRRR-OH; N-terminus and C-terminus assumed) | 29.65 ± 12.6% | exhibited anticandidal activity | 100 | could be prevented | 25 (±2) μg/mL | 14 (±9) μg/mL | 14 (±10) μg/mL | 16.5 (±13) μg/mL | 
3 | EDIGHIKYCGIVDDCYKSKKPLFKIWKCVENVCVLWYK [NCR169] | no calcein release |  | 100 | unable to prevent vaginal epithelial cell death |  |  |  |  | 
4 | RLNTTFRPLNFKMLRFWGQNRNIMKHRGQKVHFSLILSDCKTNKDCPKLRRANVRCRKSYCVPI [NCR335, cationic chemically synthesized mature NCR peptide of Medicago truncatula] | 43.12 ± 13.05% | exhibited anticandidal activity | > 25 | could be prevented | 12.5 (±2.5) μg/mL | 11 (±1) μg/mL | 7 (±1) μg/mL | 8 (±2) μg/mL | 
5 | SFLGTFISSCKRDKDCPKLYGANFRCRKGTCVPPI [NCR035, chemically synthesized mature nodule-specific cysteine-rich (NCR) peptide of Medicago truncatula] |  |  |  |  |  |  |  |  | did not label the C. albicans cells
6 | VNDCIRIHCKDDFDCIENRLQVGCRLQREKPRCVNLVCRCLRR [NCR055, chemically synthesized mature nodule-specific cysteine-rich (NCR) peptide of Medicago truncatula] |  |  |  |  | 50 (±3) μg/mL | 50 (±4) μg/mL |  |  | 
